Results: patent US9580415B2, “Compounds” (Proximagen Limited, priority 2013, dated 2017)

What was measured:
hERG K+ channel = hERG K+ channel (Homo sapiens (Human), UniProt Q12809); assay: hERG assay, IonWorks patch clamp electrophysiology; format: cell-based; conditions: Chinese Hamster Lung cell line stably expressing hERG, IonWorks Quattro, max 11 uM
Experimental: Compounds of the invention were tested for inhibition of the human ether a go-go related gene (hERG) K^+ channel using IonWorks patch clamp electrophysiology. 8 Point concentration-response curves were generated on two occasions using 3-fold serial dilutions from the maximum assay concentration (11 uM). Electrophysiological recordings were made from a Chinese Hamster Lung cell line stably expressing the full length hERG channel. Single cell ion currents were measured in the perforated patch clamp configuration (100 ug/mL amphoterocin) at room temperature using an IonWorks Quattro instrument. The internal solution contained 140 mM KCl, 1 mM MgCl2, 1 mM EGTA and 20 mM HEPES and was buffered to pH 7.3. The external solution contained 138 mM NaCl, 2.7 mM KCl, 0.9 mM CaCl2, 0.5 mM MgCl2, 8 mM Na2HPO4 and 1.5 mM KH2PO4, and was buffered to pH 7.3. Cells were clamped at a holding potential of […] for 30 s and then stepped to +40 mV for 1 s. This was followed by a hyperpolarising step of 1 s to […] to evoke the hERG tail current. This sequence was repeated 5 times at a frequency of 0.25 Hz. Currents were measured from the tail step at the 5th pulse, and referenced to the holding current. […] A minimum of 17 cells were required for each pIC50 curve fit.

human SSAO = human SSAO (Homo sapiens (Human), UniProt Q16853); assay: SSAO enzyme inhibition assay (benzylamine substrate; hydrogen peroxide/HRP or aldehyde detection); format: biochemical; conditions: purified recombinantly expressed human SSAO, RT
Sequence of human SSAO (Q16853 whole entry): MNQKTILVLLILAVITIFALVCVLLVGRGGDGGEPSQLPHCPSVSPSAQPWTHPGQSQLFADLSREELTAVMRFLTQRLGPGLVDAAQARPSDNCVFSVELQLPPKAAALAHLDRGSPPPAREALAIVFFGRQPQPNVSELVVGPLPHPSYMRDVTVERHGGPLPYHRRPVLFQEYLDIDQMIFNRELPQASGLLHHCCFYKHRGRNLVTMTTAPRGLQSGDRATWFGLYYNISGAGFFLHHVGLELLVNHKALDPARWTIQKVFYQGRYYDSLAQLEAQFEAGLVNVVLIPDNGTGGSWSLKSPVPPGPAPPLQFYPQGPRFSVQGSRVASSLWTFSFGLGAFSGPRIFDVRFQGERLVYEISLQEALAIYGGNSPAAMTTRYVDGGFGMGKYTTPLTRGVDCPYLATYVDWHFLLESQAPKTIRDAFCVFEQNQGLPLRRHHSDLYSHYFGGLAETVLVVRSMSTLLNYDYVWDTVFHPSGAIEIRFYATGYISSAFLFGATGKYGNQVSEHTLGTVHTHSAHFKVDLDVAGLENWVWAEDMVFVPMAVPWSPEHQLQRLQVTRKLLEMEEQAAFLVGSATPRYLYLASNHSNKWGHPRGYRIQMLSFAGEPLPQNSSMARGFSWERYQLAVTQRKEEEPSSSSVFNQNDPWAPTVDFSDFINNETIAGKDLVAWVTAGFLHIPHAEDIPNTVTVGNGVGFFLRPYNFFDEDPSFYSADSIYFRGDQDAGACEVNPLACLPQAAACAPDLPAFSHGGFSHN
Experimental: All primary assays were performed at RT. with purified recombinantly expressed human SSAO. Enzyme was prepared essentially as described in Öhman et al. (Protein Expression and Purification 46 (2006) 321-331). In addition, secondary- and selectivity assays were performed using SSAO prepared from various tissues or purified rat recombinant SSAO. The enzyme activity was assayed with benzylamine as substrate by measuring either benzaldehyde production, using ^14C-labeled substrate, or by utilizing the production of hydrogen peroxide in a horseradish peroxidase (HRP) coupled reaction. Briefly, test compounds were dissolved in dimethyl sulfoxide (DMSO) to a concentration of 10 mM. Dose-response measurements were assayed by either creating 1:10 serial dilutions in DMSO to produce a 7 point curve or by making 1:3 serial dilutions in DMSO to produce 11 point curves. The top concentrations were adjusted depending on the potency of the compounds and subsequent dilution in reaction buffer yielded a final DMSO concentration ≦2%.
In a horseradish peroxidase (HRP) coupled reaction, hydrogen peroxide oxidation of 10-acetyl-3,7-dihydroxyphenoxazine produced resorufin, which is a highly fluorescent compound (Zhout and Panchuk-Voloshina. Analytical Biochemistry 253 (1997) 169-174; Amplex® Red Hydrogen Peroxide/peroxidase Assay kit, Invitrogen A22188). Enzyme and compounds in 50 mM sodium phosphate, pH 7.4 were set to pre-incubate in flat-bottomed microtiter plates for approximately 15 min before initiating the reaction by addition of a mixture of HRP, benzylamine and Amplex reagent. Benzylamine concentration was fixed at a concentration corresponding to the Michaelis constant, determined using standard procedures. Fluorescence intensity was then measured at several time points during 1-2 h, exciting at 544 nm and reading the emission at 590 nm. For the human SSAO assay final concentrations of the reagents in the assay wells were: SSAO enzyme 1 ug/ml, benzylamine 100 uM, Amplex reagent 20 uM, HRP 0.1 U/mL and varying concentrations of test compound. The inhibition was measured as % decrease of the signal compared to a control without inhibitor (only diluted DMSO). The background signal from a sample containing no SSAO enzyme was subtracted from all data points. Data was fitted to a four parameter logistic model and IC50 values were calculated using the GraphPad Prism 4 or XLfit 4 programs.
SSAO activity was assayed using […] benzylamine and analysed by measuring radioactive benzaldehyde. In a white 96-well optiplate (Packard), 20 uL of diluted test compound was pre-incubated at room temperature with 20 uL SSAO enzyme for approximately 15 min with continuous agitation. All dilutions were made with PBS. The reaction was initiated by adding 20 uL of the benzylamine substrate solution containing Benzylamine hydrochloride (CFA589, GE Healthcare). The plate was incubated for 1 h as above after which the reaction was stopped by acidification (10 uL 1M aq HCl). Then 90 uL Micro Scint-E solution (Perkin-Elmer) was added to each well and the plate was continuously mixed for 15 min. Phase separation occurred instantly and activity was read in a Topcount scintillation counter (Perkin-Elmer). In the final reaction well, the human recombinant SSAO concentration was 10 ug/ml. In order to optimize sensitivity, the substrate concentration was decreased as compared to the HRP coupled assay in order to get a higher fraction of radioactive product. In the human SSAO assay, benzylamine concentration was 40 uM (0.2 uCi/mL). Data was analysed as above.

Sequence of hERG K+ channel (Q12809 whole entry): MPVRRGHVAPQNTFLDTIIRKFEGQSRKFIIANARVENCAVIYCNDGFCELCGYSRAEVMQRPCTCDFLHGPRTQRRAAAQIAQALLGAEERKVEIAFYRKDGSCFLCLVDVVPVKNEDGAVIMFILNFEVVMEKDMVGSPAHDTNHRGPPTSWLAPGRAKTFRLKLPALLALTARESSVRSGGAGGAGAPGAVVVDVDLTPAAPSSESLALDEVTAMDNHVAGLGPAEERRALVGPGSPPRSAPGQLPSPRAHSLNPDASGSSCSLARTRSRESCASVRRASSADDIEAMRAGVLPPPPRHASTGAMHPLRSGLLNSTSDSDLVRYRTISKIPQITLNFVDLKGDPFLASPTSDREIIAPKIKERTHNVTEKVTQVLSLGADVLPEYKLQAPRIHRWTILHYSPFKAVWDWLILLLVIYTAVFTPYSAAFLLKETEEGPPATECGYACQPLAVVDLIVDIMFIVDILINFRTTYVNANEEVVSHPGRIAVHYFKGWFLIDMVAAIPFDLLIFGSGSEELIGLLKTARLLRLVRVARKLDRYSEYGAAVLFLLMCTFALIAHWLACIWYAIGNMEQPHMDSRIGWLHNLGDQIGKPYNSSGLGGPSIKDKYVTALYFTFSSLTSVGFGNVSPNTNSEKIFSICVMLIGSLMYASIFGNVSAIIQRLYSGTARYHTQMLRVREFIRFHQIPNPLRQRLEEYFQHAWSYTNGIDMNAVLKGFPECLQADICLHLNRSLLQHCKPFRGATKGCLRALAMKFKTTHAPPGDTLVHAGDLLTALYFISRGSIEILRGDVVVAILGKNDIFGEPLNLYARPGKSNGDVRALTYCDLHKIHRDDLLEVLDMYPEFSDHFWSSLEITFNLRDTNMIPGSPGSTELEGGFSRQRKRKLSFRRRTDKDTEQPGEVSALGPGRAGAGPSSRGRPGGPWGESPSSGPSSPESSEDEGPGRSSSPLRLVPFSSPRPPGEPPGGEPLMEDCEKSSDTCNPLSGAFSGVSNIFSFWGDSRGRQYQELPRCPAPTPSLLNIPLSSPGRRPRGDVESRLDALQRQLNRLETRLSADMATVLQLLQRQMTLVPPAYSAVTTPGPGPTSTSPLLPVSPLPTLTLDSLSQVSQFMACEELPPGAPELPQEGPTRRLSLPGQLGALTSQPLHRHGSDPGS

Compound | IC50 (human SSAO) [nM] | IC50 (hERG K+ channel; human, pH 7.3) [nM] | IC50 (hERG K+ channel) [nM]
NC(=O)N1CCC(c2c(-c3ccc(N)nc3)n(-c3ccc(Cl)cc3)c3cnccc23)CC1 [Example 1, 4-[2-(6-Aminopyridin-3-yl)-1-(4-chlorophenyl)-1H-pyrrolo[2,3-c]pyridin-3-yl]piperidine-1-carboxamide] | < 10 | 1000 to 10000 | 
NC(=O)N1CCC(c2c(-c3cccnc3)n(-c3ccc(Cl)cc3)c3cnccc23)CC1 [Example 2, 4-[1-(4-Chlorophenyl)-2-(pyridin-3-yl)-1H-pyrrolo[2,3-c]pyridin-3-yl]piperidine-1-carboxamide; formic acid] | 10 to 100 | 1000 to 10000 | 
COc1ccc(-c2c(C3CCN(C(N)=O)CC3)c3ccncc3n2-c2ccc(Cl)cc2)cn1 [Example 3, 4-[1-(4-Chlorophenyl)-2-(6-methoxypyridin-3-yl)-1H-pyrrolo[2,3-c]pyridin-3-yl]piperidine-1-carboxamide; formic acid] | < 10 |  | 
COc1cc(-c2c(C3CCN(C(N)=O)CC3)c3ccncc3n2-c2ccc(Cl)cc2)ccn1 [Example 4, 4-[1-(4-Chlorophenyl)-2-(2-methoxypyridin-4-yl)-1H-pyrrolo[2,3-c]pyridin-3-yl]piperidine-1-carboxamide; formic acid] | < 10 |  | 100 to 1000
CN1CCN(c2cc(-c3c(C4CCN(C(N)=O)CC4)c4ccncc4n3-c3ccc(Cl)cc3)ccn2)CC1 [Example 5, 4-[1-(4-Chlorophenyl)-2-[2-(4-methylpiperazin-1-yl)pyridin-4-yl]-1H-pyrrolo[2,3-c]pyridin-3-yl]piperidine-1-carboxamide; bis(formic acid)] | < 10 |  | 
NC(=O)N1CCC(c2c(-c3ccc(N4CCOCC4)nc3)n(-c3ccc(Cl)cc3)c3cnccc23)CC1 [Example 6, 4-[1-(4-Chlorophenyl)-2-[6-(morpholin-4-yl)pyridin-3-yl]-1H-pyrrolo[2,3-c]pyridin-3-yl]piperidine-1-carboxamide] | < 10 |  | 
NC(=O)N1CCC(c2c(-c3cncnc3)n(-c3ccc(Cl)cc3)c3cnccc23)CC1 [Example 7, 4-[1-(4-Chlorophenyl)-2-(pyrimidin-5-yl)-1H-pyrrolo[2,3-c]pyridin-3-yl]piperidine-1-carboxamide] | 10 to 100 | 1000 to 10000 | 
NC(=O)N1CCC(c2c(-c3cc[nH]n3)n(-c3ccc(Cl)cc3)c3cnccc23)CC1 [Example 8, 4-[1-(4-Chlorophenyl)-2-(1H-pyrazol-3-yl)-1H-pyrrolo[2,3-c]pyridin-3-yl]piperidine-1-carboxamide] | 10 to 100 | 1000 to 10000 | 
NC(=O)N1CCC(c2c(-c3cn[nH]c3)n(-c3ccc(Cl)cc3)c3cnccc23)CC1 [Example 9, 4-[1-(4-Chlorophenyl)-2-(1H-pyrazo1-4-yl)-1H-pyrrolo[2,3-c]pyridin-3-yl]piperidine-1-carboxamide] | < 10 |  | > 10000
Cn1cc(-c2c(C3CCN(C(N)=O)CC3)c3ccncc3n2-c2ccc(Cl)cc2)cn1 [Example 10, 4-[1-(4-Chlorophenyl)-2-(1-methyl-1H-pyrazol-4-yl)-1H-pyrrolo[2,3-c]pyridin-3-yl]piperidine-1-carboxamide; trifluoroacetic acid] | < 10 |  | 
Cn1nccc1-c1c(C2CCN(C(N)=O)CC2)c2ccncc2n1-c1ccc(Cl)cc1 [Example 11, 4-[1-(4-Chlorophenyl)-2-(1-methyl-1H-pyrazol-5-yl)-1H-pyrrolo[2,3-c]pyridin-3-yl]piperidine-1-carboxamide] | < 10 |  | 
NC(=O)N1CCC(c2c(-n3cccn3)n(-c3ccc(Cl)cc3)c3cnccc23)CC1 [Example 13, 4-[1-(4-Chlorophenyl)-2-(1H-pyrazol-1-yl)-1H-pyrrolo[2,3-c]pyridin-3-yl]piperidine-1-carboxamide; formic acid] | 10 to 100 | 1000 to 10000 | 

Continued, in another order:

IC50 (human SSAO) [nM] | Compound | IC50 (hERG K+ channel; human, pH 7.3) [nM] | IC50 (hERG K+ channel) [nM]
< 10 | Cn1cncc1-c1c(C2CCN(C(N)=O)CC2)c2ccncc2n1-c1ccc(Cl)cc1 [Example 12, 4-[1-(4-Chlorophenyl)-2-(1-methyl-1H-imidazol-5-yl)-1H-pyrrolo[2,3-c]pyridin-3-yl]piperidine-1-carboxamide] |  | > 10000
10 to 100 | NC(=O)N1CCC(c2c(-n3ccnc3)n(-c3ccc(Cl)cc3)c3cnccc23)CC1 [Example 14, 4-[1-(4-Chlorophenyl)-2-(1H-imidazol-1-yl)-1H-pyrrolo[2,3-c]pyridin-3-yl]piperidine-1-carboxamide; bis(formic acid)] |  | > 10000
100 to 350 | NC(=O)N1CCC(c2c(-n3ccnn3)n(-c3ccc(Cl)cc3)c3cnccc23)CC1 [Example 15, 4-[1-(4-Chlorophenyl)-2-(1H-1,2,3-triazol-1-yl)-1H-pyrrolo[2,3-c]pyridin-3-yl]piperidine-1-carboxamide] |  | 
100 to 350 | NC(=O)N1CCC(c2c(-n3cncn3)n(-c3ccc(Cl)cc3)c3cnccc23)CC1 [Example 16, 4-[1-(4-Chlorophenyl)-2-(1H-1,2,4-triazol-1-yl)-1H-pyrrolo[2,3-c]pyridin-3-yl]piperidine-1-carboxamide] |  | 
< 10 | Clc1ccc(-n2c(-c3ccncc3)c(C3CCNCC3)c3ccncc32)cc1 [Example 17, 4-[1-(4-Chlorophenyl)-3-(piperidin-4-yl)-1H-pyrrolo[2,3-c]pyridin-2-yl]pyridine] | 1000 to 10000 | 
10 to 100 | Nc1ccc(-c2c(C3CCNCC3)c3ccncc3n2-c2ccc(Cl)cc2)cn1 [Example 18, 5-[1-(4-Chlorophenyl)-3-(piperidin-4-yl)-1H-pyrrolo[2,3-c]pyridin-2-yl]pyridin-2-amine] |  | > 10000
10 to 100 | CN(C)Cc1c(-c2ccncc2)n(-c2ccc(Cl)cc2)c2cnccc12 [Example 19, {[1-(4-Chlorophenyl)-2-(pyridin-4-yl)-1H-pyrrolo[2,3-c]pyridin-3-yl]methyl}dimethyl amine] | 1000 to 10000 | 
100 to 350 | CN(C)Cc1c(-c2cccnc2)n(-c2ccc(Cl)cc2)c2cnccc12 [Example 20, {[1-(4-Chlorophenyl)-2-(pyridin-3-yl)-1H-pyrrolo[2,3-c]pyridin-3-yl]methyl}dimethyl amine] |  | 
100 to 350 | Clc1ccc(-n2c(-c3nn[nH]n3)c(C3CCNCC3)c3ccncc32)cc1 [Example 21, 4-[1-(4-Chlorophenyl)-2-(2H-1,2,3,4-tetrazol-5-yl)-1H-pyrrolo[2,3-c]pyridin-3-yl]piperidine; bis(trifluoroacetic acid)] |  | > 10000
